Here are results for three molecules from paper PMC12718081 (ACS Infectious Diseases, 2025).

Holding throughout (format): cell-based, Schistosoma mansoni
One assay deals with Sm.TRPMPZQ. Briefly: Ca2+ reporter assay in antagonist mode (block of PZQ activation of Sm.TRPMPZQ). The conditions noted are these: preincubation 1 nM-100 μM for 10 min, data not shown. The method, then: (§1) The Ca^2+ reporter assay was performed using a Fluorescence Imaging Plate Reader (FLIPR) system, as described in the Supporting Information.
(§2) Adult worm ex-vivo high-content assay
(§3) “Area” and “False Negative Rate” from the MeasureObjectSizeShape and MeasureObjectOverlap modules, respectively. These measurements were then modeled by a multilevel generalized linear statistical model. The effects of the experimental treatments on […]
(§4) The half-maximal inhibitory
(§5) Windows (GraphPad Software, Boston, MA, USA; www.graphpad.com). […]
(§6) with DMSO as a negative control. […]
(§7) reader. […] The fluorescence
(§8) Untransfected HEK293 cells were used as a control.
(§9) 10% fetal bovine serum (FBS). […]
(§10) atmosphere containing 5% CO₂. Following incubation, the growth medium was removed and […]
buffer containing 2.5 mM probenecid in HBSS (with Ca²⁺ and Mg²⁺), 20 mM HEPES, 0.3% BSA (Sigma, A7030), and 0.03% L-ascorbic acid (Sigma). Cells were incubated for 40 minutes at 37 °C and subsequently for 20 minutes at room temperature. A total of seven PZQ derivatives were tested, using racemic PZQ included as a positive control on each assay plate. Drug dilutions were prepared in assay buffer without dye and probenecid and dispensed into separate flat-bottom 384-well plates. Calcium flux measurements were performed at room temperature using a […]
(§11) instrument (Molecular Devices). Baseline fluorescence was recorded for 20 seconds, followed by the addition of 5 µL of each drug solution, after which fluorescence was measured continuously for 250 seconds. […]
schistosomula after 72h of incubation using the Roboworm high-content screening assay. Auranofin (AUR) was included at 10 µM as positive control. DMSO was included as a negative control. Compounds were considered hits if both their motility and phenotype scores were lower than -0.35 and -0.15, respectively (region delimited by the […]
(1 picture or pasted object on this page, not shown here)
For orientation: In a reporter assay the amount or activity of a reporter protein is the signal.

In the next assay the test system is S. mansoni schistosomula. Briefly: Roboworm high-content screening assay on schistosomula (motility and phenotype scores). The note with it: 72 h. As to the method: All PZQ derivatives were synthesized in the racemic form and evaluated as such. The compounds were initially screened at 10 μM against S. mansoni schistosomula using the Roboworm high-content screening assay , and were declared hits or nonhits based on their effect on parasites’ motility and phenotype scores after 72 h of incubation. As none of the compounds were considered hits at this concentration, we performed a titration from 6.25 to 50 μM (Figure S27).
DMSO was included as a negative control. Compounds were considered hits if both their motility and phenotype scores were lower than −0.35 and −0.15, respectively (region delimited by the dashed lines). In red, PZQ analogues selected for further analysis.
For the collection of schistosomula, B. glabrata snails infected with S. mansoni were shed for 2 h under light at 26 °C. Cercariae were collected, mechanically transformed into schistosomula as previously described.
DMSO (0.625%, v/v) was included as a negative control. Z′ values for the assay were calculated to be 0.542 for phenotype and 0.361 for motility. […]
Auranofin (AUR) was included at 10 µM as positive control. DMSO was included as a negative control. Compounds were considered hits if both their motility and phenotype scores were lower than -0.35 and -0.15, respectively (region delimited by the […]

In another assay the test system is Sm.TRPMPZQ Y1392A mutant. Briefly: Ca2+ reporter activation assay, Sm.TRPMPZQ point mutant Y1392A. The note with it: 100 μM. The method, then: This trend likely indicates a similar binding mode.
The colored cells represent the range of EC50 values for each compound based on their ability to activate the channel.
as §1, §2, §3, §4, §5, §6, §7, §8, §9, §10
buffer containing 2.5 mM probenecid in HBSS (with Ca²⁺ and Mg²⁺), 20 mM HEPES, 0.3% BSA (Sigma, A7030), and 0.03% L-ascorbic acid (Sigma). Cells were incubated for 40 minutes at 37 °C and subsequently for 20 minutes at room temperature. […]
as §11

Consider `O=C(C1CCCCC1)N1CC(=O)N2CCc3ccc(-n4cc(C5=CCCCC5)nn4)cc3C2C1` (stereo not drawn) [Compound 5b], for which the “block of PZQ activation of Sm.TRPMPZQ (antagonist mode)” value with Sm.TRPMPZQ is recorded as “failed to impact subsequent responses to PZQ”.
For the molecule `[N-]=[N+]=Nc1ccc2c(c1)C1CN(C(=O)C3CCCCC3)CC(=O)N1CC2` (stereo not drawn) [Compound 4], the “hit classification (motility and phenotype scores)” value with S. mansoni schistosomula (12.5 μM) is listed as “borderline”; with S. mansoni schistosomula (25 μM), “declared a hit”. The “activity at Sm.TRPMPZQ carrying the Y1392A mutation” value with Sm.TRPMPZQ Y1392A mutant was “retained residual activity”.
For the molecule `CCCc1cn(-c2ccc3c(c2)C2CN(C(=O)C4CCCCC4)CC(=O)N2CC3)nn1` (stereo not drawn) [Compound 5e], the “effect on parasites motility” value in the assay with S. mansoni schistosomula (50 μM) is reported as “significant effect”. The “hit classification (motility and phenotype scores)” value in the assay with S. mansoni schistosomula (50 μM, hit if motility < -0.35 and phenotype < -0.15) is “did not change their phenotype score enough to be considered a hit”.
